Structures can show the parent of a compound that is named as a salt.
Columns and labels:
ALS = conditions: in vivo; cited from earlier work
[1] = system: MPTP-induced Parkinson's disease mouse model; test: MPTP-induced Parkinson's disease mouse model (grip strength, rotarod, TH immunohistochemistry); assay type: in vivo, C57BL/6 mice; conditions: for reduction in TH-positive cells in the substantia nigra region: P<0.0001
Procedure: Sixty male C57BL/6 mice were selected and randomly divided into 5 groups (12 mice/group), namely a sham surgery group (normal control), a model group (model control), an L-DOPA group (positive drug control, 40 mg/kg), a low-dose YT salt treatment group (167.5 mg/kg), and a high-dose YT salt treatment group (248 mg/kg). The mice were intraperitoneally injected with MPTP at a dose of 30 mg/kg for 5 consecutive days for modeling. The YT salt was intragastrically administered twice daily (with an interval of 7-8 h between two administrations) for 13 consecutive days. L-DOPA was administered twice daily (with an interval of 7-8 h between two administrations) for 8 consecutive days. The amelioration effect of the YT salt on the motor function of the MPTP-induced Parkinson's disease mice was evaluated by behavioral indicators such as a grip strength test and a rotarod test. Histopathological examination was performed on the animals to evaluate the protective effect of the YT salt on dopaminergic neurons in the MPTP-induced Parkinson's disease mice.

[2] = system: SOD1G93A mutant ALS model mice; test: Onset of disease, severe conditions and survival in SOD1G93A ALS mouse model; assay type: in vivo
Procedure: The therapeutic effect of the YT salt on the survival status of ALS animals was evaluated in SOD1^G93A transgenic mice (B6SJL-Tg (SOD1*G93A) 1/cyagen). Sixteen female and fourteen male B6SJL-Tg(SOD1*G93A) 1/cyagen mice were selected and randomly divided into 2 groups (7 males+8 females/group) according to sex and body weight, namely a model group (control) and a YT salt group (treatment group). The YT salt was intragastrically administered at a dose of 496 mg/kg once daily. The administration began on day 66 of mouse age. Body weight changes were monitored, animal status and symptom severity were evaluated, and individual survival periods were recorded. Statistics on the severity of animal symptoms included the time to the first onset of disease and the time to the first observation of severe conditions in the animals. […] In this study, “severe condition” was defined as a state in which the animal was completely paralyzed and unable to move freely, but still alive; if the animal died directly without going through a “paralysis” stage after the onset of disease, the death was considered the occurrence of a severe condition. The survival period was statistically defined as the survival time of the animal at the endpoint of the test (day 130). The hazard ratio was calculated using the Log-rank test method.

[3] = system: 6-OHDA-induced Parkinson's disease rats; test: 6-OHDA-induced Parkinson's disease rat model (grid walking test); assay type: in vivo, SD rats; conditions: 248 mg/kg intragastrically once daily, 6 weeks; P<0.05 vs model
Procedure: Forty-eight male SD rats were selected and divided into 4 groups (12 rats/group), namely a sham surgery group (normal control), a model group (model control), an istradefylline group (istradefylline, as a positive drug control, 10 mg/kg), and a YT salt treatment group (248 mg/kg). The Parkinson's disease model was established by injecting […] of 6-OHDA into the right intracranial medial forebrain bundle (MFB) of rats. After modeling, istradefylline and the YT salt were administered intragastrically once daily for 6 consecutive weeks, and a grid walking test was performed at the end of the 6-week administration period to evaluate the disease progression in the rats.

CD4-positive T cells = test: Proliferation of CD4-positive T cells from anti-CD3/CD28-stimulated PBMCs (CellTrace, flow cytometry); assay type: cell-based, human; conditions: 72 h; for proliferation of CD4-positive T cells compared to control group (DMSO): 100 μM (Y+T: 100 μM+100 μM)
Source text: (§1) It has been reported that in ALS, Th cells are described as major players in inflammation and disease progression. […] Similarly, CD8 T cell infiltration was also observed in the spinal cord and brain of ALS patients. (Elise Liu, et al., Neuroinflammation in Amyotrophic Lateral Sclerosis and Frontotemporal Dementia and the Interest of Induced Pluripotent Stem Cells to Study Immune Cells Interactions With Neurons, Front Mol Neurosci. 2021 Dec. 14; 14:767041. doi: 10.3389/fnmol.2021.767041.) To observe the inhibitory effects of the compounds, the compound combination, or the salt of the present disclosure on immune cell infiltration or proliferation, their effects in inhibiting the proliferation of CD4-positive and CD8-positive T cells were further analyzed. First, a certain amount of human peripheral blood mononuclear cells (PBMCs) were incubated with 5 μM CellTrace cell proliferation assay reagent in an incubator at 37° C. with 5% CO2 in the dark for 20 min. Then, 1.5×10^5 CellTrace-stained PBMCs were seeded in a 96-well U-bottom plate and treated with Anti-CD3/CD28 antibody-coupled magnetic beads at a ratio of 1:1 (cell count:magnetic bead count) to induce differentiation into T cells. Subsequently, various compounds at corresponding concentrations (compound Y: 100 μM; compound T: 100 μM; compound combination Y+T: 100 µM compound Y+100 μM compound T; YT salt: 100 μM; control group: […] (100 μM)) were co-incubated with the above-treated cells in the incubator at 37° C. with 5% CO2 for 72 h, followed by analysis by a flow cytometer. Specifically, the test cells were first treated with a Live/dead dye (633 nm, 1:1000 dilution) at 4° C. for 30 min to distinguish dead cells from live cells. […] After appropriate washing, the above-stained cells were analyzed by a flow cytometer at different wavelengths. […] Proliferation of CD4-positive and CD8-positive T cells was determined by the fluorescence of CellTrace dye.

SH-sy5y cells = test: Cell viability of hydrogen peroxide-induced SH-sy5y cells (CellTiter-Glo luminescence); assay type: cell-based
Procedure: Neuroblastoma SH-sy5y cells (purchased from the Cell Bank of the Chinese Academy of Sciences) were cultured in a complete medium (DMEM+10% FBS+1% PS) in a cell incubator at 37° C. with 5% CO2. The experiment was divided into 11 groups in total: • Group 1 (control): SH-sy5y cells • Group 2 (model): SH-sy5y cells+hydrogen peroxide • Group 3: SH-sy5y cells+hydrogen peroxide+compound Y (100 μM) • Group 4: SH-sy5y cells+hydrogen peroxide+compound T (100 μM) • Group 5: SH-sy5y cells+hydrogen peroxide+compound B (100 μM) • Group 6: SH-sy5y cells+hydrogen peroxide+compound N (100 μM) • Group 7: SH-sy5y cells+hydrogen peroxide+compound combination Y+T (100 μM+100 μM) • Group 8: SH-sy5y cells+hydrogen peroxide+compound combination B+N (100 μM+100 μM) • Group 9: SH-sy5y cells+hydrogen peroxide+compound combination PB+T (500 μM+200 μM) • Group 10: SH-sy5y cells+hydrogen peroxide+YT salt (100 μM) • Group 11: SH-sy5y cells+DMSO
Neuroblastoma SH-sy5y cells were plated at 1×10^4 cells/well in a complete medium (DMEM+10% FBS+1% PS) and cultured in a cell incubator at 37° C. with 5% CO2 for 24 h, followed by the addition of the corresponding compounds. After 24 h of incubation, hydrogen peroxide was added to stimulate the cells for 1 h, with the final concentration of hydrogen peroxide being 350 µM. Subsequently, […] CellTiter-Glo® (CTG) reagent was added, and the mixture was shaken for 2 min. Then, the luminescence signal values were measured, which could characterize the cell viability. […] Pharmacology/toxicologyNDAreviewandevaluation, Application number: 2166600Orig1s000, Food and Drug Administration. doi: pink.pharmaintelligence.informa.com/-/media/supporting-documents/pink-sheet/2022/11/relyvrio_nonclinical.pdf?rev=d27109bf35c040d4a78f73144d132917&hash=414BB5B4473A21ECE0231375EB1C0341).

CD8-positive T cells = test: Proliferation of CD8-positive T cells from anti-CD3/CD28-stimulated PBMCs (CellTrace, flow cytometry); assay type: cell-based, human; conditions: 72 h; for proliferation of CD8-positive T cells compared to control group (DMSO): 100 μM (Y+T: 100 μM+100 μM)
Source text: as §1

[4] = 496 mg/kg intragastrically once daily

In the case of `CC1=NN(c2ccccc2)C(=O)C1` [Evadarone], the “revised ALS functional rating scale (ALSFRS-R) score” value (ALS) is given as “improves”.
In the case of `N[C@@H](Cc1ccc(O)c(O)c1)C(=O)O` [L-DOPA, reference compound], the “MPTP-induced decrease in animal grip strength” value ([1]; L-DOPA 40 mg/kg twice daily, 8 days, P<0.001 vs model) is reported as “significantly ameliorate” and the “reduction in TH-positive cells in the substantia nigra region” value (from here on “reduction in TH-positive cells”) ([1]; L-DOPA 40 mg/kg twice daily) is reported as “significant inhibition”.
For `COc1cc2cc3[n+](cc2cc1OC)CCc1cc2c(cc1-3)OCO2` [YT salt], the “apoptosis of dopaminergic neurons in the substantia nigra region and striatal region” value ([1]; YT salt 167.5 mg/kg twice daily) was “significantly inhibit”, the “MPTP-induced decrease in animal grip strength” value ([1]; YT salt high dose 248 mg/kg intragastrically twice daily, 13 days, P<0.01 vs model) was “significantly ameliorate” and the “reduction in TH-positive cells” value ([1]; YT salt high dose 248 mg/kg twice daily) was “significant inhibition”. The “loss of TH-positive neurons (TH immunohistochemical staining in the striatum)” value ([1]; YT salt high dose 248 mg/kg twice daily, P<0.01) was “significant inhibition”, the “MPTP-induced reduction in time on the rod (rotarod test)” value ([1]; YT salt high dose 248 mg/kg twice daily, P<0.05 vs model) was “significant amelioration effect” and the “reduction in TH-positive cells” value ([1]; YT salt low dose 167.5 mg/kg twice daily) was “significant inhibition”. The median onset time [2, 4] was 109 days, the “median time to severe condition occurrence” value [2, 4] was 117 days and the “onset time (earliest onset in group)” value [2, 4] was > 90 days of mouse age. The “time of first onset vs model group (Log-rank)” value ([2]; 496 mg/kg intragastrically once daily from day 66 of age, P=0.0802) was “no statistical difference”, the “hazard ratio for disease onset” value ([2]; 496 mg/kg intragastrically once daily, Log-rank) was 0.5716 and the “survival period vs model group” value ([2]; 496 mg/kg intragastrically once daily, P<0.01) was “significantly superior”. For the same molecule, the “incidence of severe conditions vs model group” value ([2]; 496 mg/kg intragastrically once daily, P<0.05) was “significantly lower”, the “median onset time longer than in the model group” value ([2]; 496 mg/kg intragastrically once daily, model group 102 days) was 7 days and the death hazard ratio ([2]; 496 mg/kg, Log-rank) was 0.3212. For the same molecule, the “hazard ratio for severe conditions” value ([2]; 496 mg/kg, Log-rank) was 0.45, the endpoint survival rate ([2]; 496 mg/kg, endpoint day 130) was 53.333% and the median survival period ([2]; 496 mg/kg, endpoint day 130) was “the number of dead individuals had not exceeded half by the endpoint of the test”. The “endpoint severe condition rate” value ([2]; 496 mg/kg, endpoint of the test day 130) was 66.667%, the “hazard ratio for disease onset, times lower than model group” value ([2]; 496 mg/kg, model group 1.749) was “about 3 times” and the “hazard ratio for severe conditions, times lower than model group” value ([2]; 496 mg/kg, model group 2.222) was “about 5 times”. For the same molecule, the “death hazard ratio, times lower than model group” value ([2]; 496 mg/kg, model group 3.113) was roughly 10 times, the “median time to severe condition occurrence longer than in the model control group” value ([2]; 496 mg/kg, model group 109 days) was “about 8 days” and the “foot fault rate in grid walking test” value [3] was “significant reduction”. For the same molecule, the “number of foot faults in grid walking test” value [3] was “significant reduction”, the “proliferation of CD4-positive T cells compared to control group (DMSO)” value (CD4-positive T cells) was “significantly inhibited” and the “inhibitory effect on proliferation of CD4-positive T cells compared to compound T and compound U (UDCA)” value (CD4-positive T cells; 100 μM) was “significantly superior”. The “effects in improving cell viability compared to compound T, compound B, combination B+N and combination PB+T” value (SH-sy5y cells; Y+T 100 μM+100 μM, YT salt 100 μM, hydrogen peroxide-induced) was “significantly superior effects in improving cell viability”, the “proliferation of CD8-positive T cells compared to control group (DMSO)” value (CD8-positive T cells) was “significantly inhibited” and the “inhibitory effect on proliferation of CD8-positive T cells compared to compound T and compound U (UDCA)” value (CD8-positive T cells; 100 μM) was “significantly superior”.
For `COc1cc2cc3[n+](cc2cc1OC)CCc1cc2c(cc1-3)OCO2.[Cl-]` [compound Y], the “proliferation of CD4-positive T cells compared to control group (DMSO)” value (CD4-positive T cells) was “significantly inhibited”, the “effect in improving cell viability compared to compound B monotherapy” value (SH-sy5y cells; 100 μM each, hydrogen peroxide-induced) was “superior” and the “effect in improving cell viability compared to the model” value (SH-sy5y cells; 100 μM, 24 h incubation, then hydrogen peroxide 1 h, P<0.0001 vs model) was “excellent effect in improving cell viability”. The “proliferation of CD8-positive T cells compared to control group (DMSO)” value (CD8-positive T cells) was “significantly inhibited”.

From patent publication US20260076959A1, “COMBINATION PRODUCT, SALT, AND USE THEREOF IN TREATING NEURODEGENERATIVE DISEASES OR DISORDERS” (SHANGHAI HENLIUS BIOTECH, INC., priority 2023, published 2026)
